# Source: article PMC11394712 (Foods, 2024)
# Tests used:
# α-amylase = settings: ref 39 (Zheng et al.); cited from earlier work
# α-glucosidase = settings: ref 39 (Zheng et al.); cited from earlier work
# [1] = biological target: T1, α-Amylase from porcine pancreas (Sus scrofa, UniProt P00690); assay: Inhibition rate of α-amylase (glucose assay kit, 510 nm); format: biochemical
# T1 construct: purchased Sigma-Aldrich (Shanghai, China); host or cells: porcine pancreas
# T1 sequence (P00690 16-511): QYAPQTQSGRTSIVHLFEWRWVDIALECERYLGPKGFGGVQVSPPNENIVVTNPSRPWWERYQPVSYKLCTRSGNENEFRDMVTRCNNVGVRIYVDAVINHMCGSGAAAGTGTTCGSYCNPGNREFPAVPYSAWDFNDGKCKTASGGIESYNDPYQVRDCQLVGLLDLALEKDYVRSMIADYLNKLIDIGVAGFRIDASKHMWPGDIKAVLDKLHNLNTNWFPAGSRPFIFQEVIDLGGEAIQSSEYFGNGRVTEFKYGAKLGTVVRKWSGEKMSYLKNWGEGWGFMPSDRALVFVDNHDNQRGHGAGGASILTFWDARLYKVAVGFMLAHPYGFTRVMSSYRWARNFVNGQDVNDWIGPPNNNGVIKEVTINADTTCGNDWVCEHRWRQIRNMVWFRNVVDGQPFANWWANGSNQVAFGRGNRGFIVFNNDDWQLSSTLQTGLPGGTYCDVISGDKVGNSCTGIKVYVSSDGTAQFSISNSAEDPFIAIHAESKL
# Description: For α-amylase, the method of Qin et al. [22] was used with slight modifications (the enzymatic reaction time was different). […] A 5 mL aliquot of the above solution was taken to undergo 10 min of incubation at 37 °C, following by the addition of 5 mL of starch solution (20 mg/mL) that was prepared and kept at 37 °C. Following 15 min of incubation at 37 °C, the reaction solution was removed, and a glucose assay kit was employed for assaying the glucose produced after starch hydrolysis through measuring the changes in the absorbance at 510 nm. […] IC50 was calculated using SPSS 25.0 (IBM) nonlinear regression fitting. (4) Inhibition ratio (%) = 1−ODsample−ODsample blank/ODenzyme solution−ODbuffer solution×100 where ODsample, ODsample blank, and ODenzyme solution represent the absorbance of the solution containing both the sample and the enzyme, the sample solution, and the enzyme solution, respectively. ODbuffer solution is the absorbance of the buffer solution.
# [2] = biological target: T1, α-Amylase from porcine pancreas; assay: Fluorescence quenching, binding and thermodynamic analysis, α-amylase; settings: for Kd: KD dissociation constant; for Kd / KQ static quenching constant / n binding sites / ΔG free energy change / ΔH enthalpy change / ΔS entropy change / KA apparent quenching rate constant: α-amylase
# Description: For fluorescence spectroscopic studies, we followed the protocol in the study of Yu et al.. […] Fluorescence quenching parameters were calculated using the following equations:(8) Fa=Fm⋅e^(Aex+Aem)/2 where Fm denotes the measured fluorescence data; Fa represents the adjusted fluorescence data; and Aex and Aem denote the absorbance at the excitation and emission wavelengths, respectively.
# Stern–Volmer dynamic impact quenching equation:(9) F0/F=1+KAτ0[Q]
# Binding and thermodynamic analyses were used for elucidating the mechanisms of enzyme inhibition, including the inhibition of fluorophores by quenchers. […] (13) lg(F0−F/F)=lgKC+nlg[Q] where F0, F, and [Q] are identical to those in Equation (9). KC is the binding constant (L/mol), and n denotes the average number of binding sites. (14) lnKQ2/KQ1=ΔH/R(1/T1−1/T2) (15) ΔG=−RTlnK=ΔH−TΔS
# [3] = biological target: T1, α-Amylase from porcine pancreas; assay: Reversibility and enzyme inhibition kinetics, α-amylase (Lineweaver–Burk); format: biochemical
# Description: The protocol of Dong et al. was followed with minor modifications (the substrate concentration was different). […] The assay mixture received 10 min of incubation at 37 °C. The mixture underwent 15 min of incubation after being added with starch solution (5 mL, 20 mg/mL), followed by the determination of the absorbance change. […] The mixture of the above solution with 2 mL of pNPG solution (25.0 mmol/L) underwent 15 min of incubation, followed by the measurement of its absorbance at 405 nm.
# The method in the study of Jiang et al. was modified slightly in this study (the concentration of the inhibitor was different). […] Thereafter, the assay mixture added with 5 mL of 10, 20, 40, 50, and 100 mg/mL of starch solution underwent 15 min of incubation at 37 °C. The assay was performed using a glucose assay kit, together with the identification of the absorbance change at 510 nm.
# The assay mix was incubated further for 15 min at 37 °C. The experimenters terminated the reaction by adding 6 mL of sodium carbonate solution (0.2 mol/L). The absorbance change of the solution was monitored colorimetrically at 405 nm. […] The equations below were adopted for calculating Km, KIC, and KIN, which, respectively, represented the Michaelis constant, competitive inhibition constant, and non-competitive inhibition constant, in mg/mL [28].
# Lineweaver–Burk:(5) 1/V=Km/Vmax⋅1/[S]+1/Vmax
# [4] = tested on: porcine pancreatic α-amylase and amyloglucosidase (rice starch digestion); assay: In vitro digestion of genistein–starch mixed system (RDS, SDS, RS contents); format: biochemical, porcine; Aspergillus niger
# Description: A particular volume of mixed enzyme solution was prepared in which the specific activities of porcine pancreatic α-amylase and amyloglucosidase were 150 U/mL and 15 U/mL, respectively, and kept at 37 °C. […] This mixed system was added to 25 mL of mixed enzyme solution to receive incubation at 37 °C and 160 r/min in a shaking water bath. Aliquots from the reaction solution were removed at 0, 20, and 120 min, followed by being assayed using a glucose assay kit (Megazyme). Below is the calculation equation of the rapidly digestible starch (RDS), slowly digestible starch (SDS), and resistant starch (RS) contents:(1) RDS(%)=(G20−G0)×0.9/TS×100 (2) SDS(%)=(G120−G20)×0.9/TS×100 (3) RS(%)=TS−RDS−SDS/TS×100
# In the above equations, G0 represents the content of free glucose within starch; G20 and G120 are the quantities of glucose generated by the mixed enzyme solution after incubation for 20 and 120 min, respectively; TS represents the total starch content in the sample, mg; and 0.9 is the glucose conversion coefficient.
# [5] = addition of genistein (0.4 mg/mL, 10%) vs starch alone
# [6] = genistein 0.4 mg/mL (10.0 mg per 100 mg rice starch), 37 °C
smiles,measurement,setting,value
COc1cc(/C=C/C(=O)O)ccc1O [ferulic acid],IC50 α-amylase,α-amylase,622 µg/mL
same,IC50 α-glucosidase,α-glucosidase,866 µg/mL
"O=c1c(-c2ccc(O)cc2)coc2cc(O)cc(O)c12 [genistein, Genistein]",IC50,[1],2550 µM
same,type of fluorescence quenching of α-amylase,"[2]; 25, 31, 37 °C",static quenching
same,Kd,[2]; 25 °C,760 µM
same,Kd,[2]; 31 °C,170 µM
same,Kd,[2]; 37 °C,110 µM
same,KQ static quenching constant,[2]; 25 °C,540 L/mol
same,n binding sites,[2]; 25 °C,1.19
same,ΔG free energy change,[2]; 25 °C,-3.415 kcal/mol
same,ΔH enthalpy change,[2]; 25 °C,-0.11 kcal/mol
same,ΔS entropy change,[2]; 25 °C,50.65 J·mol^−1·K^−1
same,KA apparent quenching rate constant,[2]; 31 °C,5.32e+11 M⁻¹ s⁻¹
same,KQ static quenching constant,[2]; 31 °C,530 L/mol
same,n binding sites,[2]; 31 °C,0.97
same,ΔG free energy change,[2]; 31 °C,-3.717 kcal/mol
same,ΔH enthalpy change,[2]; 31 °C,-1.44 kcal/mol
same,ΔS entropy change,[2]; 31 °C,31.97 J·mol^−1·K^−1
same,KA apparent quenching rate constant,[2]; 37 °C,4.84e+11 M⁻¹ s⁻¹
same,KQ static quenching constant,[2]; 37 °C,480 L/mol
same,n binding sites,[2]; 37 °C,0.77
same,ΔG free energy change,[2]; 37 °C,-3.81 kcal/mol
same,ΔH enthalpy change,[2]; 37 °C,-0.504 kcal/mol
same,ΔS entropy change,[2]; 37 °C,44.59 J·mol^−1·K^−1
same,type of inhibition of α-amylase,"[3]; genistein 0, 1, 2 mg/mL",reversible and non-competitive
same,Ki,"[3]; read-out: KIN (non-competitive inhibition constant), α-amylase (converted)",50500 µM
same,increase of RS content,[4]; [5],7.18%
same,increase of SDS content,[4]; [5],30.34%
same,reduction of RDS content in starch,[4]; [5],37.52%
same,RDS content of the mixed system,[4]; [6],20.63%
same,RS content of the mixed system,[4]; [6],9.14%
same,SDS content of the mixed system,[4]; [6],70.23%
